Experimental data: patent US10508124B2, “Xanthene protective agent” (priority 2016, dated 2019)
Converted amounts (≈) assume the structure as drawn. Where a SMILES comes first, the peptide text is derived from it.

Assay: physchem
Format: physicochemical
Procedure: Peptide used as a model: H-Phe-Leu-NH2
H-Phe-Leu-NH2 and H-Phe-Leu-NH-(TIPS2-Xtn) were synthesized, and each compound was saturated in cyclopentyl methyl ether (CPME) at 25° C. to measure the solubility of each compound.
In regard to H-Phe-Leu-NH2 not bound to a TIPS type protective agent, 0.5 mM of the peptide dissolved in CPME. […] Herein, H-Phe-Leu-NH2 and H-Phe-Leu-NH-(TIPS2-Xtn) have the following structures.

| SMILES | solubility [mM] | solubility in CPME relative to unprotected H-Phe-Leu-NH2 [times] |
| --- | --- | --- |
| CC(C)C[C@H](NC(=O)[C@@H](N)Cc1ccccc1)C(N)=O [H-Phe-Leu-NH2, reference compound] (H-Phe-Leu-NH2) | 0.5 (≈ 0.139 mg/mL) | – |
| CC(C)C[C@H](NC(=O)[C@@H](N)Cc1ccccc1)C(=O)NC1c2ccc(OCCCCCCCCCCCO[Si](C(C)C)(C(C)C)C(C)C)cc2Oc2cc(OCCCCCCCCCCCO[Si](C(C)C)(C(C)C)C(C)C)ccc21 [H-Phe-Leu-NH-(TIPS2-Xtn)] | 586 (≈ 670 mg/mL) | ≥ 1100 |
